We go through 6 compounds from ChEMBL document CHEMBL4428075, “New antiproliferative 7-(4-(N-substituted carbamoylmethyl)piperazin-1-yl) derivatives of ciprofloxacin induce cell cycle arrest at G2/M phase” (Bioorg Med Chem, 2016).

For one experiment, the system named is WI-38. The experiment can be described thus: Antiproliferative activity against human WI38 cells after 24 hrs by BrdU incorporation assay. Type of experiment: cell-based. The following applies: WI-38, 24 h. (Dividing cells build labelled thymidine or BrdU into new DNA.)
Experiment [1] has as its system A549. The experiment can be described thus: Antiproliferative activity against human A549 cells after 24 hrs by BrdU incorporation assay. Type of experiment: functional, cell-based. The following applies: A549, 24 h.
Experiment [2] concerns A549. The experiment in a line: Induction of cell cycle arrest in human A549 cells assessed as accumulation at sub G1 phase at 100 uM after 24 hrs by FITC-labeled anti-BrdU antibody/7AAD staining based FACS calibur flow cytometric analysis (reference value: 0.82 %). Type of experiment: functional. Background: In flow cytometry, cells or beads pass a laser one at a time.
The subject of experiment [3] is A549. The experiment in a line: Induction of cell cycle arrest in human A549 cells assessed as accumulation at S phase at 100 uM after 24 hrs by FITC-labeled anti-BrdU antibody/7AAD staining based FACS calibur flow cytometric analysis (reference value: 20.9 %). The format is functional.
Experiment [4] relates to A549. The experiment in a line: Induction of cell cycle arrest in human A549 cells assessed as accumulation at G2/M phase at 100 uM after 24 hrs by FITC-labeled anti-BrdU antibody/7AAD staining based FACS calibur flow cytometric analysis (reference value: 12.61 %). Type of experiment: functional.
Experiment [5] concerns A549. The experiment can be described thus: Induction of cell cycle arrest in human A549 cells assessed as accumulation at G1 phase at 100 uM after 24 hrs by FITC-labeled anti-BrdU antibody/7AAD staining based FACS calibur flow cytometric analysis (reference value: 65.9 %). The format is functional.
Experiment [6] deals with A549. The experiment in a line: Induction of cell cycle arrest in human A549 cells assessed as accumulation at G1 phase at 1 uM after 24 hrs by FITC-labeled anti-BrdU antibody/7AAD staining based FACS calibur flow cytometric analysis (reference value: 65.9 %). Type of experiment: functional.
The subject of experiment [7] is A549. The experiment in a line: Induction of cell cycle arrest in human A549 cells assessed as accumulation at sub G1 phase at 1 uM after 24 hrs by FITC-labeled anti-BrdU antibody/7AAD staining based FACS calibur flow cytometric analysis (reference value: 0.82 %). The format is functional.
For experiment [8], the system named is A549. The experiment can be described thus: Induction of cell cycle arrest in human A549 cells assessed as accumulation at S phase at 1 uM after 24 hrs by FITC-labeled anti-BrdU antibody/7AAD staining based FACS calibur flow cytometric analysis (reference value: 20.9 %). Type of experiment: functional.
The test system of experiment [9] is A549. The experiment can be described thus: Induction of cell cycle arrest in human A549 cells assessed as accumulation at G2/M phase at 1 uM after 24 hrs by FITC-labeled anti-BrdU antibody/7AAD staining based FACS calibur flow cytometric analysis (reference value: 12.61 %). The format is functional.

Where only a bound is given, the exact number is not on record here.

In the case of `Cc1ccc(NC(=O)CN2CCN(c3cc4c(cc3F)c(=O)c(C(=O)O)cn4C3CC3)CC2)cc1`, the results for the IC50 with WI-38 and in the experiment with A549 [1] were more than 100 µM and 23.6 µM, respectively.
For the compound `O=C(O)c1cn(C2CC2)c2cc(N3CCNCC3)c(F)cc2c1=O` [CIPROFLOXACIN], the Activity was determined as 9.5% in the experiment on A549 [2], 3.8% in the experiment on A549 [3], 16.8% in the experiment with A549 [4] and 61% in the experiment on A549 [5]. Further, the IC50 in the experiment with WI-38 and in the experiment with A549 [1] was more than 100 µM in each case.
For the compound `COc1ccccc1NC(=O)CN1CCN(c2cc3c(cc2F)c(=O)c(C(=O)O)cn3C2CC2)CC1`, the IC50 with WI-38 and with A549 [1] was more than 100 µM throughout.
`O=C(CN1CCN(c2cc3c(cc2F)c(=O)c(C(=O)O)cn3C2CC2)CC1)NC1CCCCC1`: the IC50 (as a rule, the concentration that gives 50% inhibition) is more than 100 µM in the experiment with WI-38 and 20.7 µM in the experiment with A549 [1].
For the compound `COc1cccc2c1C(=O)c1c(O)c3c(c(O)c1C2=O)C[C@@](O)(C(=O)CO)C[C@@H]3O[C@H]1C[C@H](N)[C@H](O)[C@H](C)O1` [DOXORUBICIN], the Activity in the experiment on A549 [6] stood at 56.5%; in the experiment with A549 [7] it was 6.75%; in the experiment on A549 [8], 15.4%; in the experiment with A549 [9], 22.5%. Besides, in the experiment with WI-38, it took 12.3 µM to reach half-maximal inhibition (IC50).
For `O=C(CN1CCN(c2cc3c(cc2F)c(=O)c(C(=O)O)cn3C2CC2)CC1)Nc1ccccc1`, the half-inhibitory concentration (IC50) in the experiment with WI-38 and in the experiment with A549 [1] was more than 100 µM in each case.
